The experiment deals with Mitogen-activated protein kinase 1 (Homo sapiens, UniProt P28482). The experiment is described as follows: IMAP-FP Assay. The method, then:
Activated ERK2 activity was determined in an IMAP-FP assay (Molecular Devices).

Chain of Mitogen-activated protein kinase 1 (P28482 whole entry): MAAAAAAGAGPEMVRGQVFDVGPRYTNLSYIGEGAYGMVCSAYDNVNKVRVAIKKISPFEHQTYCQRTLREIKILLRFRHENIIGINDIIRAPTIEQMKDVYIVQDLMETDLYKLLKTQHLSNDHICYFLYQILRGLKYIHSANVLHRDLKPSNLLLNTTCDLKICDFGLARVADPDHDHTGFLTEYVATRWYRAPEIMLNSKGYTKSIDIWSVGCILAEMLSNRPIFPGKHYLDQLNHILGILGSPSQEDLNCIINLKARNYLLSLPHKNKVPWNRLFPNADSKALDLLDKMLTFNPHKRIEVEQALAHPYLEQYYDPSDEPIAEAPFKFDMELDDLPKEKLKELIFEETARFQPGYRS

Regarding `COC1CN(c2n[nH]c3cc(NC(=O)N[C@H](C)c4ccc(F)cc4)ncc23)C1` [US9233979, 23], the half-maximal inhibitory concentration (IC50) worked out at 8.69 nM.

Source of the values: BindingDB's records for patent US9233979 (Merck Sharp & Dohme, 2016).
